Assay: Spectral change of Compound 5 in association with pH change (absorption and fluorescence spectra)
Format: physicochemical
Procedure: For all the samples, measurements were performed in a 1:1 mixed solvent of 100 mM sodium phosphate buffered solution and acetonitrile (containing 0.1% or less of DMSO as an auxiliary solvent).
In the case of Compound 5, for example, the tricarbocyanine fluorophore is a pH-sensitive FRET receptor, the dicarbocyanine fluorophore is an FRET donor, and the compound has a property that when the nitrogen atom binding to the methine chain of the tricarbocyanine fluorophore is protonated, the peak in the excitation spectrum shifts from around 660 nm to the longer wavelength side in connection with decrease of electron donating ability. […] Namely, by dissolving Compound 5 in a test sample, performing excitation with a light of 640 nm, and measuring ratio of fluorescence intensities at 660 nm and 750 nm upon excitation, it becomes possible to detect pH by the ratio method. Compound 5 is especially useful as a pH fluorescent probe for measuring pH in live cells or live tissues, in particular, in deep part tissues, under a physiological condition.
In a 1:1 mixed solution of 100 mmol/L phosphate buffer (pH 1.2, 2.1, 3.3, 3.9, 5.0, 6.0, 6.8) and acetonitrile (containing 0.1% or less of DMSO as an auxiliary solvent), absorption spectra and fluorescence spectra (excitation wavelength: 640 nm) of Compound 5 were measured. It can be understood that with elevation of pH, the absorbance around 650 nm increased, and the absorption spectrum changed. Moreover, it can also be understood that in the fluorescence spectrum, with elevation of pH, the fluorescence intensity decreased around 660 nm, and increased around 750 nm. Therefore, pH change can be accurately measured by using the ratio method based on one-wavelength excitation/ two-wavelength fluorescence measurement. […] The fluorescence intensities at 660 nm and 750 nm linearly change from pH 4 to 6, and accordingly, pH of this range can be measured by using Compound 5.

[1] = excitation 640 nm, 1:1 phosphate buffer (pH 1.2-6.8) and acetonitrile

## CN1/C(=C/C=C2\CCCC(/C=C/C3=[N+](C)c4ccccc4C3(C)C)=C2NCCCCCC(=O)N[C@H]2CC[C@H](NC(=O)CC[N+]3=C(/C=C/C=C/C=C4/N(CCC(=O)O)c5ccccc5C4(C)C)C(C)(C)c4ccccc43)CC2)C(C)(C)c2ccccc21 [Compound 5]
1:1 100 mmol/L phosphate buffer (pH 1.2-6.8) and acetonitrile
  change of absorbance around 650 nm with elevation of pH: increased
[1]
  change of fluorescence intensity around 660 nm with elevation of pH: decreased
  change of fluorescence intensity around 750 nm with elevation of pH: increased
Excitation light of 640 nm, nitrogen atom not protonated
  fluorescence wavelength of the tricarbocyanine fluorophore (FRET receptor): around 750 nm
Excitation light of 640 nm, nitrogen atom protonated
  fluorescence wavelength peak of the dicarbocyanine fluorophore (FRET donor): around 660 nm
